# According to PMC11721541 (Journal of Lipid Research, 2024):
# Experiments:
# [1] = tested on: pah1Δ cells (SS1026) overexpressing Pah1 or Pah1-CC; assay type: cell-based, Saccharomyces cerevisiae
# Experimental: (§1) The cell density was determined by measurement of A600 nm after a 48-h static incubation using a SpectraMax M2e microplate reader (Molecular Devices). […] The A600 nm readings were taken after 4 days of incubation.
# HepG2 cells = assay: Lipid analysis (TLC, charring) in HepG2 cells; assay type: cell-based, human; details: 10 μM, 18 h
# [2] = tested on: WT S. cerevisiae cells (RS453); assay: Lipid analysis ([2-14C]acetate labeling, TLC) in S. cerevisiae; details: 163 μM, 12 h, SC-0.2% glucose
# Description: Lipids were extracted ([97]) from ∼ 8 × 10^7 cells and analyzed by one-dimensional TLC with silica gel 60 plates using the solvent system containing hexane/diethyl ether/glacial acetic acid (40:10:1, v/v) ([98]). Radiolabeled lipids were visualized by phosphorimaging with a Storm 860 Molecular Imager (GE Healthcare) and quantified with ImageQuant software using a standard curve of [2–^14C]acetate. The amounts of TAG and phospholipids were normalized to total lipids on TLC plates.
# The radiolabeling was performed in the SC medium owing to the difficulty of [2–^14C]acetate incorporation into cells grown in the RPMI medium.
# human lipin 1α = target: T1, human lipin 1α (Homo sapiens, UniProt Q14693); assay: PAP assay, human lipin 1α; assay type: biochemical; details: for IC50: unphosphorylated, from E. coli, PA 2.4 mol %
# T1 construct: His6 (C); made in house; host or cells: E. coli Rosetta2(DE3)pLysS, plasmid pGH322 (pET-28b(+) derivative)
# T1 sequence (Q14693 1-890): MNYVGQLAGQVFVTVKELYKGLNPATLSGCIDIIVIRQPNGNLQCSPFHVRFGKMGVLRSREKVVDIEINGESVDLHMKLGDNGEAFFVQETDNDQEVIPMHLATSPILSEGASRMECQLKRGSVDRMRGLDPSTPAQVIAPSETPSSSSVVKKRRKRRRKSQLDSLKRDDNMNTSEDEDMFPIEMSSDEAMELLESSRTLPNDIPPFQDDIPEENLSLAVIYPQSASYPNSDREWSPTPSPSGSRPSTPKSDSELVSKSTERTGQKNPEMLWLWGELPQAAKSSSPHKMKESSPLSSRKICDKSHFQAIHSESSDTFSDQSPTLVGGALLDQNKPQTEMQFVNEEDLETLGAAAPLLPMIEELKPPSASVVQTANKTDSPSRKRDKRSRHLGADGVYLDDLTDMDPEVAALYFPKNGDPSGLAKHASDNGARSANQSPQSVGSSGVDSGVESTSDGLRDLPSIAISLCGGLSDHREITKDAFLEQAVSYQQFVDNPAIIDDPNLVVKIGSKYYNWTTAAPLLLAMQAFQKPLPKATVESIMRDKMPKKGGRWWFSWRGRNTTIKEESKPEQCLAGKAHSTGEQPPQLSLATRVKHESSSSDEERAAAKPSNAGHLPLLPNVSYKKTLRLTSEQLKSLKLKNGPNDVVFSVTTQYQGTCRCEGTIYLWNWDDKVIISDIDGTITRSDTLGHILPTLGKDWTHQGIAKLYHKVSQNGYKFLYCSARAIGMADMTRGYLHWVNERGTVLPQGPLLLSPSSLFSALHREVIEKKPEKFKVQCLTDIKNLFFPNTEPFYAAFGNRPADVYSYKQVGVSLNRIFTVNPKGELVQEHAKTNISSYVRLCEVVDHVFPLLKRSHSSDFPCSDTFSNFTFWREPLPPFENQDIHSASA
# Experimental: (§2) PA dissolved in chloroform was dried in vacuo for 1 h. The dried PA was suspended in Triton X-100 to prepare Triton X-100/PA-mixed micelles ([88]). The mole percent of PA in the Triton X-100/PA-mixed micelle was calculated using the following formula: mol %PA = 100 × [PA (molar)]/([PA (molar)] + [Triton X-100 (molar)]). The total PA concentration in the Triton X-100/PA-mixed micelles was kept below 15 mol% to ensure that the structure of the PA-mixed micelles was similar to that of pure Triton X-100 micelles ([89], [90]).
# (§3) PAP activity was measured at 30°C for 20 min by following the release of water-soluble ^32Pi from chloroform-soluble [^32P]PA (5,000–10,000 cpm/nmol) ([1], [88]). [^32P]PA was enzymatically synthesized from 1, 2-dioleoyl DAG and [γ-^32P]ATP with E. coli DAG kinase ([88]). Pah1-CC PAP activity was measured by following the formation of Pi from unlabeled PA using the malachite green-molybdate reagent ([4], [91]). The reaction mixture in a total volume of 100 μl contained 50 mM Tris-HCl (pH 7.5), 1 mM MgCl2, 10 mM 2-mercaptoethanol, 0.2 mM PA, 2 mM Triton X-100, and 50 ng purified enzyme. The enzyme assays were conducted in triplicate; the reactions were linear with time and protein concentration.
# (§4) Each of the isoforms was heterologously expressed in E. coli, which allowed for their isolation in the unphosphorylated state ([4]).
# human lipin 1γ = target: T2, human lipin 1γ (Homo sapiens, UniProt Q14693); assay: PAP assay, human lipin 1γ; assay type: biochemical; details: unphosphorylated, from E. coli; PA 2.4 mol %
# T2 construct: His6 (C); made in house; host or cells: E. coli Rosetta2(DE3)pLysS, plasmid pGH321 (pET-28b(+) derivative)
# T2 sequence (Q14693 1-916 isoform Q14693-4): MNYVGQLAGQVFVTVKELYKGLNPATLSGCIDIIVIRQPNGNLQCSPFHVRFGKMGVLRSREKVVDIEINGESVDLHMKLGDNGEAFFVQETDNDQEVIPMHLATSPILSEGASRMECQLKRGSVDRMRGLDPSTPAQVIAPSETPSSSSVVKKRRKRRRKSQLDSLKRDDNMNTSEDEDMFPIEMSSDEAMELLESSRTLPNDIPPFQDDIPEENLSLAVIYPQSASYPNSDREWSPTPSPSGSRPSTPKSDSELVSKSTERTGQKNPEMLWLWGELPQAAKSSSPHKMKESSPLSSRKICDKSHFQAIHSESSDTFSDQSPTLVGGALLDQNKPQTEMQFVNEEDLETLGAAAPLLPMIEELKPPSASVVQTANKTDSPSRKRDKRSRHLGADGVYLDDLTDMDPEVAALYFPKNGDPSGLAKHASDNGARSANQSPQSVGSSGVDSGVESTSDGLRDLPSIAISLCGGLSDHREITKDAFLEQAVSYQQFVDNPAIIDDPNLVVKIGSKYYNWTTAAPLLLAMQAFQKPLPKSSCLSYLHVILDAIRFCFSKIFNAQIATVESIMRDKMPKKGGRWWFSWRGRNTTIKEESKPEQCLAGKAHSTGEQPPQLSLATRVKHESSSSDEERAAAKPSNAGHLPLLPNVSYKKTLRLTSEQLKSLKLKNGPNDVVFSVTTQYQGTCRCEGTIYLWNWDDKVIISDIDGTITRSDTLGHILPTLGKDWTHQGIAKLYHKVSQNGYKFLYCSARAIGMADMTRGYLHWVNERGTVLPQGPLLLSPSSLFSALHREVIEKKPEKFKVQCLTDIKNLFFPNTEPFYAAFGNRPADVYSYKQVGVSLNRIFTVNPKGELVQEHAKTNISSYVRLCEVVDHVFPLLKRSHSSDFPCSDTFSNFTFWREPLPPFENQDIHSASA
# Experimental: as §2, §3, §4
# pah1Δ mutant cells = assay type: cell-based, Saccharomyces cerevisiae
# Experimental: as §1
# For this experiment, we cultured the mutant in SC-0.2% glucose medium because of its growth defect in RPMI-0.2% glucose.
# We reasoned that an overexpressed level of PAP activity would more readily rescue the inhibitory effect of the drug on the mutant growth.
# human lipin 1β = target: T3, human lipin 1β (Homo sapiens, UniProt Q14693); assay: PAP assay, human lipin 1β; assay type: biochemical; details: unphosphorylated, from E. coli; PA 2.4 mol %
# T3 construct: His6 (C); made in house; host or cells: E. coli Rosetta2(DE3)pLysS, plasmid pGH327 (pET-28b(+) derivative)
# T3 sequence (Q14693 1-926 isoform Q14693-3): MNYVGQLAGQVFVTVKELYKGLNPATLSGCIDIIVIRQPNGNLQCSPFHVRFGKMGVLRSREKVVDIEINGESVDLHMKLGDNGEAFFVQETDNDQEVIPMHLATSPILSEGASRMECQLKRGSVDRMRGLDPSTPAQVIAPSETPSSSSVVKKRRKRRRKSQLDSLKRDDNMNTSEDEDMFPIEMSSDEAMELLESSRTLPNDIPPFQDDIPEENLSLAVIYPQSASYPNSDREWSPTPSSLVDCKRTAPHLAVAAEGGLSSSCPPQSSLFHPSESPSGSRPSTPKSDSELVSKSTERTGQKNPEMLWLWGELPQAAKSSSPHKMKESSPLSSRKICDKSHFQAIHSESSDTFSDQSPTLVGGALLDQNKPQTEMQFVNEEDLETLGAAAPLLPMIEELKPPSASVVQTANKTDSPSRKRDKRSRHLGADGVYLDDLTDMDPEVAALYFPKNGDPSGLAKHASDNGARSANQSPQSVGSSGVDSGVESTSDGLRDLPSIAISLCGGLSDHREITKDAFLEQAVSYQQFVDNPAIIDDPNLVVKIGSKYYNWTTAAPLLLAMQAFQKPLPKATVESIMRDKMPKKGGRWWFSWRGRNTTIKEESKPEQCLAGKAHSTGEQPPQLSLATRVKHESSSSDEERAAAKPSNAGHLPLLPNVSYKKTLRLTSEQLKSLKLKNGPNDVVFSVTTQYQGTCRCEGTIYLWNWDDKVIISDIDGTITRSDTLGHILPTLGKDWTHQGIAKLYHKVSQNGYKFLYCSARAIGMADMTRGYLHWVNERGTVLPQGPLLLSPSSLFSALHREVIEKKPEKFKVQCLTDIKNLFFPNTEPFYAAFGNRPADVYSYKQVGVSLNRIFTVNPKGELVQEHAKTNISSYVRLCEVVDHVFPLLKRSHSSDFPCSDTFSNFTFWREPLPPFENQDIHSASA
# Experimental: as §2, §3, §4
SMILES,effect on growth of cells expressing Pah1 [1],reduction in the TAG level (HepG2 cells),growth of cells during the incubation period (HepG2 cells; vs DMSO vehicle),decrease of TAG content [2],increase of phospholipid content [2],"IC50 values for lipin 1 isoforms lower than those of propranolol (human lipin 1α; lipin 1 α, β and γ isoforms together)",IC50 (human lipin 1α),IC50 (human lipin 1γ),effect on growth of pah1Δ mutant (pah1Δ mutant cells),IC50 (human lipin 1β)
CN[C@H]1CC[C@@H](c2ccc(Cl)c(Cl)c2)c2ccccc21 [sertraline],mild inhibition,2 fold,did not differ from that of the control,2.2 fold,1.2 fold,~2 fold,103 µM,143 µM,severe reduction in growth,108 µM
CC(C)NCC(O)COc1cccc2ccccc12 (stereo not shown) [propranolol],,,,,,,226 µM,227 µM,,271 µM
